Literature values as cited in patent US20190374461A1, “Treatment apparatus and mechanisms for an infected nail” (priority 2018, published 2019).
Several values for one entry are separate records, joined by “and”; a condition that tells them apart may be missing. Equal values may be shown once. Where a name gives a salt, the structure may show the parent alone. Read-outs that look alike come from different tables or passages of the source.

Test system: nail infections

Compound: C[C@@H](n1cnc2cc(Cl)ccc2c1=O)[C@](O)(Cn1cncn1)c1ccc(F)cc1F [Albaconazole]
- side effects compared with Lamisil (in vivo, po): prone to fewer side effects than Lamisil

Compound: CCC(C)(C)c1ccc(CC(C)CN2C[C@@H](C)O[C@@H](C)C2)cc1 (some centres unmarked) [Amorolfine, amorolfine]
- cure rates (topical, mild nail infections without nail matrix involvement): 40 to 55%
- effectiveness against severe nail infections (topical, severe nail infections involving the nail bed): not effective

Compound: Cc1cc(C2CCCCC2)n(O)c(=O)c1 [Ciclopirox, ciclopirox]
- cure rate (topical, 8% strength): about 8.5%

Compound: CN(C/C=C/C#CC(C)(C)C)Cc1cccc2ccccc12 [Lamisil, terbinafine hydrochloride]
- mycological cure rate (oral treatment of nail infections): 46%

Compound: CC[C@@H]([C@H](C)O)n1ncn(-c2ccc(N3CCN(c4ccc(OC[C@@H]5CO[C@@](Cn6cncn6)(c6ccc(F)cc6F)C5)cc4)CC3)cc2)c1=O [Posaconazole]
- side effects compared with Lamisil (oral treatment): prone to fewer side effects than Lamisil

Compound: OB1OCc2cc(F)ccc21 [Tavaborole, tavaborole]
- complete cure, share of patients (topical, 600 patients in the study): 6%

Compound: C=C1CCN([C@H](C)[C@](O)(Cn2cncn2)c2ccc(F)cc2F)CC1 [efinaconazole]
- cure rates (topical, only mild infections not involving the nail bed): 17.8% and 15.2%
